The subject of this assay is Plasmodium falciparum. Put plainly: Antimicrobial activity against Plasmodium falciparum FCC1/HN. Format: functional, organism-based.
Setting [1] is: Plasmodium falciparum, FCC1/HN, read-out: IC50.

Converted amounts (≈) assume the structure as drawn.

Usually IC50 stands for the concentration needed to halve the response being measured. Take `C[C@@H]1[C@@H](O)C[C@H]2[C@@H](C)C(=O)O[C@@H]3O[C@]4(C)CC[C@@H]1C32OO4`: the IC50 under setting [1] was 0.0293 µg/mL (≈ 0.0982 µM).

For `C[C@@H]1CC[C@H]2[C@@H](C)C(=O)O[C@@H]3O[C@@]4(C)OC32[C@H]1C[C@H]4O`, the IC50 entry was “Not Active”.

Consider `C[C@@H]1[C@H](O)C[C@H]2[C@@H](C)C(=O)O[C@@H]3O[C@]4(C)CC[C@@H]1C32OO4`, for which, under setting [1], the half-maximal inhibitory concentration (IC50) amounted to 0.0346 µg/mL (≈ 0.116 µM).

On to `C[C@@H]1CC[C@H]2[C@@H](C)C(=O)O[C@@H]3O[C@@]4(C)CC[C@@H]1[C@]32OO4` [ARTEMISININ], for which the 50% inhibitory concentration (IC50) under setting [1] is 0.0031 µg/mL (≈ 0.011 µM).

For the compound `C[C@@H]1C(=O)C[C@H]2[C@@H](C)C(=O)O[C@@H]3O[C@]4(C)CC[C@@H]1C32OO4`, the IC50 under setting [1] turned out to be 0.0257 µg/mL (≈ 0.0867 µM).

The values above are taken from ChEMBL document CHEMBL1146922, “A novel ketone derivative of artemisinin biotransformed by Streptomyces griseus ATCC 13273” (Bioorg Med Chem Lett, 2006).
